Here are results for 10 compounds from patent US9403843B2, “Cysteine protease inhibitors and uses thereof” (The Trustees of Columbia University in the City of New York, priority 2012, dated 2016).

Like-named read-outs stand apart in the source and are kept apart here. Where only a bound is given, the exact number is not on record here.

Assay [1] concerns the target T1, full-length human Cal1 (Homo sapiens (Human), UniProt P07384). The assay is described as follows: Calpain inhibition FRET assay. Format: biochemical. The settings on record: Table 3, 20 min incubation, FRET substrate.
In assay [2] the target is T1, full-length human Cal1. The experiment in a line: Calpain inhibition FRET assay. Format: biochemical. The settings on record: for IC50: Table 2, approximate IC50, read-out: Cal I IC50. How it is done:
Calpain activity was measured using full-length human Cal1 in the presence of a FRET substrate. IC50 values were approximated by co-incubation of varying concentrations of the appropriate inhibitor (10, 100, 500, 1000 nM) in the presence of the FRET substrate (DABCYL)TPLK-SPPSPR-(EDANS) (SEQ ID NO: 5) and activation buffer. […] A peptide inhibitor, Z-LLY-FMK (SEQ ID NO: 6), was used as a positive control.
The Calbiochem InnoZyme activity kit was used for measuring the inhibition effect inhibitors on human erythrocyte calpain 1 activity. […] 20 μM of the FRET substrate, 10 nM of native Cal1, and 20 μM TCEP (reducing agent) were added to the reaction mixture containing assay buffer (Tris [10 mM], NaCl [100 mM], pH 7.4). Cal1 was activated by the addition of 10 μM calcium. Cleavage of the scissile bond amide bond, K-S, releases the fluorophore (EDANS) from the internal quenching molecule (DABCYL), resulting in an increase in fluorescence measured at 320 nm excitation and 480 nm emission wave lengths for 30 min. Each inhibitor was added to the reaction mixture at varying concentrations (10 nM, 100 nM, 1 μM, and 10 μM) to detect inhibition of Cal1 and reduction in fluorescence was measured by 96 well-plate reader. Approximate IC50 values of each compound were generated using linear regression within Graphpad Prism Software.

Another assay concerns APP/PS1 mice. The experiment in a line: Behavioral rescue assays (contextual fear memory, 2-day RAWM reference memory). The class given is in vivo. The text has this: APP/PS1-vehicle: n=15; APP/PS1-67: n=6; APP/PS1-30a: n=10; WT-vehicle: n=15; WT-67=5; WT-30a: n=8, APP/PS1-33: n=11; WT-33: n=8, APP/PS1-50: n=10; WT-50: n=8. P<0.05 in all transgenic groups treated with compound compared to their respective vehicle-treated transgenics.
APP/PS1-vehicle: n=17; APP/PS1-67: n=9; APP/PS1-30a: n=10; WT-vehicle: n=18; WT-67=9; WT-30a: n=9, APP/PS1-33: n=10; WT-33: n=9, APP/PS1-50: n=11; WT-50: n=9.
The ability of compounds to rescue the defects in associative and reference memory in 3 month old APP/PS1 animals was assessed. Capability of ameliorating the defects in contextual fear memory was tested via i.p. administration (FIG. 12). In the 2-day RAWM test, daily injections of the 67, 30a, 33 and 50 from the 2nd month of age were beneficial against the loss of contextual fear memory and reference memory.
Impact of chronic treatment on against memory loss in older APP/PS1 mice (7 months of age) with a more severe plaque load was also investigated. Compounds 67, 33 and 50 were beneficial against memory impairment following chronic administration (FIG. 13).
The ability of a prodrug to rescue the defects in associative and reference memory in 3 month old APP/PS1 animals was assessed. […] Thus, the esterification seems to improve PK but it spoils PD parameters. Compound 89 ameliorates both LTP and memory in 3 month old APP/PS1 mice (FIG. 15). Daily treatment with 89 from the age of 2 months until 3 months ameliorated the defect in LTP (A) contextual fear memory (B) and reference memory (C) in APP/PS1 mice. n=10 for all groups. P<0.05 in transgenics treated with compound compared to their respective vehicle-treated transgenics.

For assay [3], the system named is Aβ-induced LTP impairment. The experiment in a line: LTP rescue test. The settings on record: assessed at 650 nM.
Procedure: Residual levels of potentiation were averaged during the last 5 min of LTP.
In the next assay the target is papain (Carica papaya (Papaya), UniProt P00784). The experiment in a line: biochemical. The class given is biochemical. The source says:
(§1) Papain is representative of a family of typically lysosomal or secreted cysteine proteases, including the human cathepsins (B, C, F, H, K, L1-2, O, S, W, Z). […] Several methods have been reported in the literature for detailed kinetic analysis of the irreversible inhibition of cysteine proteases, including Cal1. […] (SEQ ID NO: 8). Using this substrate, kinetic parameters were derived using the method of Davies and co-workers, whereby “progress curves” were initially obtained measuring product formation as a function of time and fitted to y=P∞*(1−e^(−k*x)) (FIG. 7) (Cuerrier, D. et al., J Biol Chem 2007, 282, 9600-11; herein incorporated by reference in its entirety). […] Kinetic parameters (ki, KI, ki/KI) were obtained from double reciprocal plots (FIG. 7).
(§2) Full length porcine calpain (156 nM), or papain (236 pM) was added to a solution of 100 mM NaCl, 50 mM HEPES, pH 7.6, 1 mM TCEP, 30 μM Suc-LLVY-AMC (SEQ ID NO: 8) substrate, and inhibitor (0.5 to 50 μM). Calpain reactions also contained CaCl2 (1 mM and 100 mM for porcine and rat respectively). Both substrate and inhibitors were dissolved in acetonitrile/DMSO (1:1) with the exception of E-64, dissolved in water. Organic solvent remained <2% in all reactions, and most often <1%. Reactions were carried out in microtiter 96-well plates, with 150 μL per well, 30° C., and product formation was monitored over time by fluorescence (Ex/Em 346/444 nm, with 420 nm cutoff filter). Kinetic values of kobs were determined via non-linear regression using one-phase association analysis and linear plots of 1/kobs vs. 1/[I] provided kinetic constants ki and KI.

The target of assay [4] is Full length porcine calpain (Sus scrofa (Pig), UniProt P35750). The experiment in a line: Calpain inhibition kinetics studies (Suc-LLVY-AMC substrate). The class given is biochemical.
Full length porcine calpain, sequence (P35750 whole entry): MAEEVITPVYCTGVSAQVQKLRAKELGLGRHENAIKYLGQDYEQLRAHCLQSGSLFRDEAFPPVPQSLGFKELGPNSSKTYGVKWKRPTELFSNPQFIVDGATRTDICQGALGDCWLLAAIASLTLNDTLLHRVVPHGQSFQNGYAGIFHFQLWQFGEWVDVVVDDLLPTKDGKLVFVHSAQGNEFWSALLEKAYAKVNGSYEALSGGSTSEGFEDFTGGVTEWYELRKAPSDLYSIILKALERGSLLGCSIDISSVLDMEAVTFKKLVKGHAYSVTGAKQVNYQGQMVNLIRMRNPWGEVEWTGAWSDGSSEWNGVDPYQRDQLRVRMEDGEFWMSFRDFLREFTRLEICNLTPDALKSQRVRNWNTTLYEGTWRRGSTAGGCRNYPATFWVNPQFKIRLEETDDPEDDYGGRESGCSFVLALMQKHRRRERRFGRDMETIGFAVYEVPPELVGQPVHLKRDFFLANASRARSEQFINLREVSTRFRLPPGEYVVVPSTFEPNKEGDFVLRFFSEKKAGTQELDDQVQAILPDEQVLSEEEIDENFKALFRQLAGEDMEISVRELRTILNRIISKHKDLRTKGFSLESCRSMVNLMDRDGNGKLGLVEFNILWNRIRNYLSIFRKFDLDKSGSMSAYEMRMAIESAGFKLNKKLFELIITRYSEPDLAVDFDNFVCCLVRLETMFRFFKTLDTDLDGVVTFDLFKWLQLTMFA
Full length porcine calpain, sequence (P04574 whole entry partner): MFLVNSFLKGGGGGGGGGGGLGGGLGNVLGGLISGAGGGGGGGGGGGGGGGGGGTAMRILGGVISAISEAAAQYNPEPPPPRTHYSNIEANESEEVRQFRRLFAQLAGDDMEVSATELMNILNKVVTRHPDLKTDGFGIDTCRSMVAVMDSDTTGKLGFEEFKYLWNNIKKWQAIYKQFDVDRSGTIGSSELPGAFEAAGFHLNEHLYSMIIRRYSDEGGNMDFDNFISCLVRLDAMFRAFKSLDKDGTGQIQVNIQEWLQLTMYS
Source text: as §1, §2

The subject of a further assay is Cal1cat vs CathB. The assay is described as follows: Competition assay for Cal1 vs CathB using the biotinylated epoxide probe. Format: binding, rat. The note with it: individually and in combination. How it is done:
Anti-biotin western blotting of Cal1cat (Lane 6) or CathB (Lane 7) after incubation with 27 show the expected immunoreactivity of the covalently modified proteins. […] Densitometric analysis, using means from triplicate immunoblots, was used to estimate the modification of each protein by 27 in the presence of inhibitors relative to control (Lane 1: ratio=1.0).
Cal1cat was used in place of the full length enzyme to avoid autocatalysis.
Cal1cat and CathB were pre-treated with inhibitors for 10 min, followed by a 20 min incubation with the biotinylated epoxide, 27, as illustrated in FIG. 4. […] A more quantitative estimate of selectivity was achieved by comparison of band intensities.
The appropriate inhibitor (5 μM) was pre-incubated in a mixture containing Cal1cat (2 μM), CathB (2 μM), TCEP (1 mM), and Ca^2+ (30 μM) for 10 min at 37° C. […] (5 μM) was then added and the mixture incubated an additional 20 min. The reaction was quenched with EDTA (10 μM) and samples were ran using 4-16% SDS PAGE gel, subsequently transferred to PVDF membrane and visualized by Pierce ECL (Enhanced chemiluminescent) western blotting substrate, intensity of each blot was calculated using densitometry software. Relative inhibition of each enzyme was calculated with respect to enzyme activity in the absence of inhibitor. Inhibitor preference to Cal1cat with respect to CathB, was calculated by dividing relative Cal1cat inhibition with relative CathB inhibition of that particular inhibitor.

Setting [5] is: >1: inhibition not quantifiable at 1 μM.
The mark [6] stands for this setting: APP/PS1 mice, daily treatment from 2 until 7 months.
[7] abbreviates: ki/Ki calculated relative to E-64.
Setting [8] is: mean ± S.D. of triplicate experiments.

papain, sequence (P00784 134-345): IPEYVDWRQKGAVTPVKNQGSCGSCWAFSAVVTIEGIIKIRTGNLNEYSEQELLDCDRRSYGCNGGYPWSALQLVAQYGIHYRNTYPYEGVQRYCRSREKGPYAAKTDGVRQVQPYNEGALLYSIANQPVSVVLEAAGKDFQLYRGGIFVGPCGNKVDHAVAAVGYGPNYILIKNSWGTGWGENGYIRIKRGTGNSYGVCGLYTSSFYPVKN
T1 sequence (P07384 whole entry): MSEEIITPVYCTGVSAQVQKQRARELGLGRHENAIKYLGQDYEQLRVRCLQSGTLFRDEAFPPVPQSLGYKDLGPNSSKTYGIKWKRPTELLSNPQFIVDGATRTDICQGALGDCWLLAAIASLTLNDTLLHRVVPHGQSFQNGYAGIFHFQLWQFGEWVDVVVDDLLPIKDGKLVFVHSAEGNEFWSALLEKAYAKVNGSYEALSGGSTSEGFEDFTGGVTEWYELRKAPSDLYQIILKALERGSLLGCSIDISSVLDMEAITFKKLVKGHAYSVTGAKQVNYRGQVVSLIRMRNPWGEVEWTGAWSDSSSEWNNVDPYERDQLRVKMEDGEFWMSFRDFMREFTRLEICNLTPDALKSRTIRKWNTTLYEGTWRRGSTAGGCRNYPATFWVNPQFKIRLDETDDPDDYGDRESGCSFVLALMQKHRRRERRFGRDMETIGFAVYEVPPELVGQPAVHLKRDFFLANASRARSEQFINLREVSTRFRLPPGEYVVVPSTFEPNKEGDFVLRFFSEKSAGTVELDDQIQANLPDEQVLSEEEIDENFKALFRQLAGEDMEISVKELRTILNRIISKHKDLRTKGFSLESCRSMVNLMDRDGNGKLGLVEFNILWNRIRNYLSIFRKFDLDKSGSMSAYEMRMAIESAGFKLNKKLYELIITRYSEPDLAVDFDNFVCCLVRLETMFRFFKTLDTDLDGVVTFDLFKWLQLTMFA
T1 sequence (P04632 whole entry partner): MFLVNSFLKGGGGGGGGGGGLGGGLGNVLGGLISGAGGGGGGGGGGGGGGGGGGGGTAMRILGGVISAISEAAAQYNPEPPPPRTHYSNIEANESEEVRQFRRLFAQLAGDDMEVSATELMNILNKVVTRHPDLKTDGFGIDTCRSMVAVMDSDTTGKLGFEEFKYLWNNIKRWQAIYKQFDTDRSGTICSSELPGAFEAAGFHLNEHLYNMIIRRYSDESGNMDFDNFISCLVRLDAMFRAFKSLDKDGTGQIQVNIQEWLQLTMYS

As a reminder, the IC50 is the midpoint of a concentration-inhibition curve. Regarding `Cc1cc(C)c(-n2cc(CNC(=O)[C@H](Cc3cscn3)NC(=O)[C@H]3O[C@@H]3C(=O)O)nn2)c(C)c1` [Compound 58, (2S,3S)-3-((S)-1-((1-mesityl-1H-1,2,3-triazol-4-yl)methylamino)-1-oxo-3-(thiazol-4-yl)propan-2-ylcarbamoyl)oxirane-2-carboxylic acid], the half-inhibitory concentration (IC50) against full-length human Cal1 [1] (setting [5]) is greater than 1 µM. Besides, at full-length human Cal1 [2], the “Cal1 inhibition (in words)” value is “relatively high IC50 values” and the IC50 was greater than 1 µM.

Take `CC(C)C[C@H](NC(=O)[C@@H]1O[C@H]1C(=O)O)C(=O)Nc1c(F)cccc1F` [Compound 23b, (2R,3R)-3-((S)-1-(2,6-difluorophenylamino)-4-methyl-1-oxopentan-2-ylcarbamoyl)oxirane-2-carboxylic acid]: the IC50 on full-length human Cal1 [1] (setting [5]) and on full-length human Cal1 [2] was greater than 1 µM throughout. Besides, the “Cal1 inhibition (in words)” value on full-length human Cal1 [2] is reported as “not observed”.

As to `CC(C)C[C@H](NC(=O)[C@H]1O[C@@H]1C(=O)O)C(=O)NCCCCNC(=O)CCCCC1CCSS1` (stereo partly shown) [Compound 67], the reference memory entry is listed as “beneficial” in the assay with APP/PS1 mice (3 month old APP/PS1 mice, 2-day RAWM, daily from 2 months) and “not significant” in the assay with APP/PS1 mice (setting [6]). Also, the contextual fear memory result is on record as “beneficial” with APP/PS1 mice (3 month old APP/PS1 mice, daily i.p. from 2 months) and “ameliorated” in the assay on APP/PS1 mice (setting [6]). In addition, in the assay with APP/PS1 mice (7 month old APP/PS1 mice, chronic administration), the memory impairment entry is listed as “beneficial”. The “potency for LTP rescue compared with E64” value in assay [3] is given as “surpassed E64”. Besides, at full-length human Cal1 [2], the IC50 worked out at 0.15 µM.

Take `O=C(NCc1cn(-c2c(F)cccc2F)nn1)[C@H](Cc1cscn1)NC(=O)[C@H]1O[C@@H]1C(=O)O` [Compound 57, (2S,3S)-3-((S)-1-((1-(2,6-difluorophenyl)-1H-1,2,3-triazol-4-yl)methylamino)-1-oxo-3-(thiazol-4-yl)propan-2-ylcarbamoyl)oxirane-2-carboxylic acid]: on full-length human Cal1 [1] (setting [5]), the IC50 was greater than 1 µM. Moreover, on full-length human Cal1 [2], the “Cal1 inhibition (in words)” value is given as “relatively high IC50 values” and the IC50 is greater than 1 µM.

Regarding `O=C(NCc1cn(-c2ccc(Br)cc2)nn1)[C@H](Cc1cscn1)NC(=O)[C@H]1O[C@@H]1C(=O)O` [Compound 55, (2S,3S)-3-((S)-1-((1-(4-bromophenyl)-1H-1,2,3-triazol-4-yl)methylamino)-1-oxo-3-(thiazol-4-yl)propan-2-ylcarbamoyl)oxirane-2-carboxylic acid], the “potency for LTP rescue compared with E64” value in assay [3] is on record as “did not surpass”. For the same compound, at full-length human Cal1 [2], the “Cal1 inhibition (in words)” value is “potent activity” and the IC50 was 0.04 µM.

On to `C#Cc1ccc(-c2csc(NC(=O)[C@H](Cc3cscn3)NC(=O)[C@H]3O[C@@H]3C(=O)O)n2)cc1` [Compound 34, (2S,3S)-3-((S)-1-(4-(4-ethynylphenyl)thiazol-2-ylamino)-1-oxo-3-(thiazol-4-yl)propan-2-ylcarbamoyl)oxirane-2-carboxylic acid], for which the IC50 on full-length human Cal1 [1] was 0.1 µM. The Ki at papain (apparent equilibrium constant, read-out: K1 Papain) amounted to 9.7 µM; in assay [4] (apparent equilibrium constant, full length Cal1, read-out: K1 Calpain1), 3.5 µM. In addition, the “ki Papain” value on papain (inhibition rate) worked out at 21.6 s⁻¹. The “rel Papain” value at papain (setting [7]) is on record as 0.40. Besides, the “10^−5 × ki/Ki Papain” value at papain (setting [8]) is 22.3 ± 0.24. Besides, in assay [4] (Cal1 over papain, ki/Ki relative to E-64 set at 1.0), the “Relative Selectivity” value came to 3.3. Also, the “ki Calpain1” value in assay [4] (inhibition rate, full length Cal1) is 0.14 s⁻¹. The “relative selectivity for inhibition of Cal1 over papain (in words)” value in assay [4] (ki/Ki as measure, compared with E-64) is “Cal1 selectivity”. Also, in assay [4] (setting [7]), the “rel Calpain1” value is on record as 1.3. In assay [4] (setting [8]), the “10^−4 × ki/Ki Calpain1” value was 3.89 ± 0.41.

With `O=C(NCc1cn(-c2ccc([N+](=O)[O-])cc2)nn1)[C@H](Cc1cscn1)NC(=O)[C@H]1O[C@@H]1C(=O)O` [Compound 56, (2S,3S)-3-((S)-1-((1-(4-nitrophenyl)-1H-1,2,3-triazol-4-yl)methylamino)-1-oxo-3-(thiazol-4-yl)propan-2-ylcarbamoyl)oxirane-2-carboxylic acid], the IC50 at full-length human Cal1 [1] was 0.3 µM. Moreover, the “Cal1 inhibition (in words)” value on full-length human Cal1 [2] is on record as “potent activity”.

As for `O=C(O)[C@H]1O[C@@H]1C(=O)NC1(C(=O)NCCCCNS(=O)(=O)c2ccc(F)cc2)CCCCC1` [Compound 66], the “potency for LTP rescue compared with E64” value in assay [3] was “surpassed E64”. In addition, on full-length human Cal1 [2], the IC50 came out at 1 µM.

Regarding `O=C(Nc1nc2ccc(F)cc2s1)[C@H](Cc1c[nH]cn1)NC(=O)[C@@H]1O[C@H]1C(=O)O` [Compound 31b, (2R,3R)-3-((S)-1-(6-fluorobenzo[d]thiazol-2-ylamino)-3-(1H-imidazol-4-yl)-1-oxopropan-2-ylcarbamoyl)oxirane-2-carboxylic acid], the IC50 at full-length human Cal1 [1] (setting [5]) and on full-length human Cal1 [2] was greater than 1 µM throughout.

With `CC(C)C[C@H](NC(=O)[C@H]1O[C@@H]1C(=O)O)C(=O)NCCCCNC(=O)CCCC[C@@H]1SC[C@@H]2NC(=O)N[C@@H]21` [Compound 27, (2S,3S)-3-((S)-4-methyl-1-oxo-1-(4-(5-((3aS,4S,6aR)-2-oxohexahydro-1H-thieno[3,4-d]imidazol-4-yl)pentanamido)butylamino)pentan-2-ylcarbamoyl)oxirane-2-carboxylic acid], the “covalent modification of Cal1 and CathB (anti-biotin immunoblotting)” value in the assay on Cal1cat vs CathB was “covalently modify both Cal1 and CathB”. The compound also returned an IC50 against full-length human Cal1 [1] of 0.1 µM. Further, on full-length human Cal1 [2], the “Cal1 inhibition (in words)” value was “shown to be a Cal1 inhibitor” and the IC50 came to 0.15 µM.
